Experimental data from patent publication US11851459B2, “Methods and uses of modulators of anaphase promoting complex (APC) activity for treating cancer” (University of Saskatchewan, priority 2018, dated 2023).
Entries after “also recorded” stand apart in the source; their conditions may differ.

How the values were obtained:
Apc10 = target: T1, Apc10 (Saccharomyces cerevisiae, UniProt P53068); assay: Yeast 2-hybrid (Y2H) assay, Apc10 bait; assay type: binding
T1 construct: expressed in transfected cells; host or cells: yeast Y2H cells
T1 sequence (P53068 1-250): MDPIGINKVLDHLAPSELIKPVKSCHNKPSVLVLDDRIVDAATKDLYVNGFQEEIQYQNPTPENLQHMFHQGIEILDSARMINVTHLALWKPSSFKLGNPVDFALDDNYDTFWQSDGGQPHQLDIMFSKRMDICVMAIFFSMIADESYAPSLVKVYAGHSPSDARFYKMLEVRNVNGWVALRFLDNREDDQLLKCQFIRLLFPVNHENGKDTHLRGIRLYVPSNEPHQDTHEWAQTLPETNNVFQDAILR
Protocol: The reverse genetic screen utilized a yeast 2-hybrid (Y2H) protocol that selected for peptides that bound to the APC subunits Apc5 or Apc10 (see FIG. 8 for APC structure), to assess whether peptide-binding might modify APC function. Peptides that bound APC subunits were then assayed for those that suppressed APC mutant defects.
A library of random small peptides were cloned into a Thioredoxin (Trx) scaffold (see FIG. 9 for Trx-peptide structure) and expressed from a galactose-inducible Y2H prey vector in cells expressing the Apc10 bait vector (the modified Apc10 is still part of the complete APC complex). Six peptides that reproducibly interacted with the Apc10 bait construct in Y2H assays were identified (FIG. 1A) and were examined further. Cells will only grow in this assay if the peptide interacts with Apc5 or Apc10.
To identify peptides that bound to either Apc5 or Apc10 proteins using a yeast 2-hybrid (Y2H) screen, random small peptides were cloned into the TrxA scaffold (library provided by R. Geyer; FIG. 9) and expressed from a galactose-inducible Y2H prey vector in cells harboring either the APC5 or APC10 genes cloned into the Y2H bait vectors (APC5/APC10 bait constructs complement APC mutant defects).
Over 100 peptides that bound either Apc5 or Apc10 were recovered from millions screened. Six peptides that reproducibly interacted with the Apc5 or Apc10 bait construct in Y2H assays were examined further. Vectors expressing these 6 peptides were transformed into WT or APC mutant cells and assessed for ts growth.

apc10Δ cells = assay: C43-4 mutant peptides, spot dilution under temperature and UV stress, apc10Δ cells; assay type: cell-based, yeast; settings: glucose or galactose
Protocol: The cells were exposed to 5 sec of UV from a UV box prior to incubation.
Expression of the WT and mutant peptides have reduced activity in apc10Δ cells (FIG. 12).
(§1) • 1. Cells were cultured overnight in Trp^− 2% glucose media • 2. The growth of the cells was determined by measuring the optical density (OD) of the cells at 600 nm (OD600) • 3. Cells were diluted to OD600 of 1 with fresh culture media • 4. 100 ul of each culture was pipetted into a well of a 96 well plate • 5. 10 ul of the each starting culture was pipetted into 90 ul of water in 4 additional wells to make a 10-fold serial spot dilution • 6. 5 ul from each serial dilution was spotted onto plates containing standard growth media with either 2% glucose or 2% galactose using a multi-pipettor • 7. The plates were exposed to UV • 8. The plates were then placed at room temperature, 30, or 37° C. for 3-7 days • 9. The plates were scanned and saved as tiff files

wild type (WT) cells = assay: C43-4 mutant peptides, spot dilution under temperature and UV stress, WT cells; assay type: cell-based, yeast; settings: low level expression on glucose
Protocol: The cells were exposed to 5 sec of UV from a UV box prior to incubation. The plus signs define growth compared to the empty vector control.
Residues 2, 7, 8, 10, 12 and 14 of peptide C43-4 are conserved with Htz1. All of these residues were mutated to alanine (FIG. 10). Peptides that contained mutations designed to determine which amino acids were required for function were generated. These mutant peptides were grown in wild type cells and in cells that had APC10 mutated, under temperature and UV stress conditions (FIGS. 10-12).
These cells were spot diluted on Trp^− plates and grown at the temperatures shown and/or exposed to ultraviolet (UV) irradiation (FIGS. 10-12). At low level expression on glucose, some of the mutations caused stress dependent phenotypes.
as §1, with “The plates were then placed at room temperature, 30, or 37° C. for 3-7 days • 9. The plates were scanned and saved as tiff files” left out

drug resistant lymphoma = assay: Canine model of drug resistant lymphoma, metformin adjunct therapy; assay type: in vivo
Protocol: Enrolled companion canines that presented to the Western College of Veterinary Medicine in Saskatoon with lymphoma that had failed CHOP therapy were enrolled in the study. Canine lymphoma is very common, almost always results in a drug resistant form, and is treated identically in humans and canines.
Each week tumor tissue was received to use for western determination of MDR markers and RNA microarrays.
One canine (canine 6) entered remission after failing all other treatment options. RNA was sampled from the MDR tumor, during metformin treatment, during tumor shrinkage and remission and during relapse and microarray analysis was performed.

[1] = system: multiple drug resistant breast cancer; settings: cited from earlier work
APC (substrate Cyclin B) = assay: Cyclin B protein levels in MCF7 cells; assay type: cell-based, human; settings: MCF7, 48 hrs; 1 mM metformin or transient transfection of peptide plasmid
Protocol: MCF7 breast cancer cells were treated with 1 mM metformin or transiently transfected with an APC activating peptide (C43-4) for 48 hrs, then harvested for assessment of Cyclin B protein levels. Cyclin B is an APC target.
(§2) A mouse model for growing patient derived breast tumor cells obtained from a patient with triple negative breast cancer was developed. This patient had developed resistance to Doxorubicin. Tumors growing in these mice grow rapidly. Mice growing the patient derived xenografted (PDX) tumor were injected with various amounts of M2I-1. […] Since the APC was activated in the canines tested in this study following treatment with metformin, it was asked if metformin can directly activate the APC. Reduced APC substrate Cyclin B levels following metformin treatment in human MCF7 breast cancer cells was observed, similar to that observed when MDF7 cells express the C43-4 plasmid (see below for more on this plasmid) (FIG. 21).

MDA-MB-231 cells = assay: Scratch assay, migration of MDA-MB-231 cells; assay type: cell-based, human
Protocol: A. An equal number of MDA-MB-231 TNBC cells were grown to confluence in 6 well plates. The cells were then treated with increasing doses of metformin (0, 1, 5 and 10 mM) and a scratch was made in the cell lawn creating a void. At the times shown the number of cell that migrated into the void were counted. The experiment was repeated twice. B. WT MDA-MB-231 cells and cells stably expressing the C43-4 plasmid were grown as in A. Control cells were left untreated, with other cells treated with the DMSO control, 1 uM DOX or 2.5 uM M2I-1. A void was created in the cell lawn and the number of cells that entered the void were scored as above. This experiment was repeated 4 times. This experiment was also repeated 4 times in an independently generated stable C43-4 cell line with similar results. The error of the mean is shown. C. WT and MDA-MB-231 cells stably expressing the C2-4B peptide plasmid were used for the scratch assay as described above. D. WT and MDA-MB-231 cells stably expressing the C13-3 peptide plasmid were used for the scratch assay as described above. The experiments in C and D were only performed once.
Assays using WT and C43-4 expressing cells have been done 4 times. Assays using C13-3 and C2-4B cells have only been conducted once. Metformin treated cells have been used twice. For scratch assays, a scratch is made down a confluent plate of cells, leaving a void. The number of cells that migrate back into the void over time is determined.

[2] = system: OSW dog lymphoma cells selected for chemotherapeutic resistance; assay: Cell viability by Trypan Blue, DOX resistant OSW cells; assay type: cell-based, canine; settings: 1 or 5 μM 18 hrs then 1 μM DOX 48 hrs
Protocol: (§3) Parental MCF7 human breast cancer cells, or cells selected for resistance to Tamoxifen, were treated with 1 or 5 uM M2I-1. Tamoxifen resistant cells were also treated with both DOX and M2I-1. Cell viability was measured using Trypan Blue staining (3 rpts). B. Protein lysates were prepared from the cells used in A. The APC target HURP was measured using antibodies against HURP. C. Trypan Blue was used to measure viability of parental and DOX resistant OSW canine lymphoma cells pretreated with 1 or 5 μM M2I-1 (18 hrs), followed by 1 μM DOX (48 hrs). Parental cells were only treated with monotherapy (3 rpts). ND, no data. D. OSW matched cells treated with the APC activator M2I-1 were prepared for APC substrate westerns E. Quantification of western protein abundance (3 rpts).
(§4) Human MCF7 breast cancer cells selected for resistance to Tamoxifen were treated with the M2I-1 activator in culture.

[3] = system: MCF7 breast cancer cells selected for resistance to Tamoxifen; assay: Cell viability by Trypan Blue, Tamoxifen resistant MCF7 cells; assay type: cell-based, human
Protocol: as §3, §4

APC (substrate HURP) = assay: APC substrate westerns, Tamoxifen resistant MCF7 cells; assay type: cell-based, human
Protocol: as §3, §4

[4] = system: patient derived xenografted (PDX) tumor; assay: Patient derived xenograft (4-28 PDX) triple negative breast cancer mouse model; assay type: in vivo
Text: A. In vivo study of M2I-1 impact on a human patient derived xenografted breast tumor (4-28 PDX). An increased dose of M2I-1 was given to mice harboring implanted 4-28 tumor fragments ([…] i.p. injection (treatment) versus mock (DMSO) day 1, with tumor size measured every other day. B. Western analysis of apoptosis (PARP cleavage—24 kDa band) and APC substrate abundance (Cyclin B) in liver and tumor of treated and control after sacrifice on Day 8.
as §2

Molecule	binds Apc10 in a yeast 2 hybrid assay (Apc10)	activity / toxicity of peptide in apc10Δ cells (apc10Δ cells)	stress resistance (growth compared to empty vector) (wild type (WT) cells)	APC substrate RNA levels (drug resistant lymphoma; canine 6, microarray)	markers of multiple drug resistance (drug resistant lymphoma; canine tumor tissue, westerns)	remission (drug resistant lymphoma; one canine (canine 6))	multiple drug resistant breast cancer in vitro [1]	APC substrate Cyclin B protein levels (APC (substrate Cyclin B))	metastatic potential / in vitro migration (MDA-MB-231 cells)	cell killing by chemotherapy only in presence of activator [2]	cell killing / toxicity in combination with chemotherapy (DOX) ([3]; Tamoxifen resistant MCF7)	growth / toxicity of activator alone ([3]; Tamoxifen resistant MCF7, 1 or 5 uM, 18 hrs)	levels of APC substrates (APC (substrate HURP))	tumor growth ([4]; PDX TNBC in mice, i.p. injection, various amounts)	markers of APC substrates in the tumor ([4]; western, Cyclin B, Day 8)
NGSSHNDARVRRLTLISRLC [C43-4-3, alanine at position 8 of C43-4]	binds Apc10	remained toxic	increased stress resistance further												
CN(C)C(=N)N=C(N)N [metformin]				reduced APC substrate RNA levels	reverse markers of multiple drug resistance	induced remission	prevents and reverses	Reduced	blocked						
CC(C)CN(CC(C)C)c1ccc(C=C2C(=O)NC(=S)NC2=O)cc1[N+](=O)[O-] [M2I-1, Mad2 Inhibitor-1]									inhibit the in vitro migration	observed	only in the presence of M2I-1 were cells killed; also recorded: enhances toxicity	did not impair the growth; also recorded: not toxic	reduced the levels of several APC substrates tested	stalled in these cells in a dose-dependent manner	positive for APC activation
